Results reported in patent publication US12729377B2, “RNAi agents and compositions for inhibiting expression of angiopoietin-like 3 (ANGPTL3), and methods of use” (Arrowhead Pharmaceuticals, Inc., priority 2017, dated 2026).
In the oligonucleotide strings, read from the 5' end, every base follows the letter of its sugar. An asterisk marks phosphorothioate; unmarked linkages are phosphodiester. Other units and linkages are bracketed, terminal groups are in braces. A string of capitals states the bases alone. {NAG37} = tridentate N-acetyl-galactosamine targeting ligand, structure (NAG37)s; [invAb] = inverted abasic unit; m = 2'-O-methyl; f = 2'-fluoro

Key:
[1] = test system: ANGPTL3 protein; test: Example 4: serum ANGPTL3 protein by ELISA in mice; assay type: in vivo, C57bl/6 mice; settings: for Avg ANGPTL3 (Average ANGPTL3 Protein Normalized to Pre-Treatment and Control): serum, female C57bl/6 mice
Procedure: (§1) To assess the in vivo activity of ANGPTL3 RNAi agents that are designed to target additional positions on the ANGPTL3 gene, six- to eight-week-old female C57bl/6 mice were used. Pre-dose serum samples were taken at day −1 after a four hour fast. At day 1, each mouse was given a single subcutaneous administration of 200 μl containing either 1 mg/kg (mpk) or 0.5 mg/kg (mpk) of an ANGPTL3 RNAi agent in D5W (dextrose in 5% water), or control (D5W) with no RNAi agent, according to the dosing groups recited in Table 17.
(§2) Each of the RNAi agents included a modified sequence and an N-acetyl-galactosamine-containing targeting ligand conjugated to the 5′ terminal end of the sense strand. (See Tables 3, 4, and 5 for modified sequences and targeting ligand structures). The injections were performed between the skin and muscle (i.e. subcutaneous injections) into the loose skin over the neck and shoulder area. Three (3) mice in each group were tested (n=3). Serum was collected on days 8, 15, 22, 29, and day 43 (Groups 1-3, 9, and 11-13 only). Mice were fasted for four hours prior to each collection. ANGPTL3 protein levels in serum were measured by ELISA assay (R&D Systems), according to the manufacturer's recommendations. Triglycerides, high-density lipoprotein (HDL), and total cholesterol in serum were measured on a Cobas® Integra 400 (Roche Diagnostics), according to the manufacturer's recommendations.
(§3) The ANGPTL3 protein levels, triglyceride levels, HDL levels, and total cholesterol levels for each animal were normalized. For normalization, the level of ANGPTL3 protein, triglyceride, HDL, and total cholesterol, respectively, for each animal at a time point, was divided by the pre-treatment level of expression in that animal (in this case at day −1) to determine the ratio of expression “normalized to pre-treatment.” Expression at a specific time point was then normalized to the D5W control group by dividing the “normalized to pre-treatment” ratio for an individual animal by the mean “normalized to pretreatment” ratio of all mice in the D5W control group.

[2] = test system: ANGPTL3 gene; test: Example 3: serum triglycerides in mice; assay type: in vivo
Procedure: as §1, with “target” for “target additional”, “positions 921 and 922” for “positions”, “(mpk)” for “(mpk) or 0.5 mg/kg (mpk)”, “12.” for “17.”
as §2, with “Serum was collected on days 8, 15, 22, 29, and day 43 (Groups 1-3, 9, and 11-13 only).” left out
as §3

[3] = test system: ANGPTL3 gene; test: Example 4: serum triglycerides in mice; assay type: in vivo
Procedure: as §1, §2, §3

[4] = test system: ANGPTL3 gene; test: Example 7: serum total cholesterol in mice; assay type: in vivo, C57bl/6 mice; design: key: ratio: (level/pre-treatment day -1 level) ÷ mean of D5W control group
Procedure: To further assess the in vivo activity of additional ANGPTL3 RNAi agents that are designed to target position 304 on the ANGPTL3 gene, six- to eight-week-old female C57bl/6 mice were used. Pre-dose serum samples were taken at day −1 after a four hour fast. At day 1, each mouse was given a single subcutaneous administration of 200 μl containing 0.5 mg/kg (mpk) of an ANGPTL3 RNAi agent in D5W (dextrose in 5% water), or control (D5W) with no RNAi agent, according to the dosing groups recited in Table 31.
as §2, with “22,” for “22, 29,”, “29.” for “day 43 (Groups 1-3, 9, and 11-13 only).”, “Triglycerides, total cholesterol,” for “Triglycerides,”, “low-density lipoprotein (LDL)” for “total cholesterol”
The ANGPTL3 protein levels, triglyceride levels, total cholesterol levels, HDL levels, and LDL levels for each animal were normalized. For normalization, the level of ANGPTL3 protein, triglyceride, HDL, and total cholesterol, respectively, for each animal at a time point, was divided by the pre-treatment level of expression in that animal (in this case at day −1) to determine the ratio of expression “normalized to pre-treatment.” Expression at a specific time point was then normalized to the D5W control group by dividing the “normalized to pre-treatment” ratio for an individual animal by the mean “normalized to pretreatment” ratio of all mice in the D5W control group.

[5] = test system: ANGPTL3 gene; test: Example 4: serum HDL in mice; assay type: in vivo, C57bl/6 mice
Procedure: as §1, §2, §3

[6] = Day 8, 1.0 mg/kg single subcutaneous dose on day 1
[7] = Day 15, 1.0 mg/kg single subcutaneous dose on day 1
[8] = Day 22, 1.0 mg/kg single subcutaneous dose on day 1
[9] = Day 29, 1.0 mg/kg single subcutaneous dose on day 1
[10] = Day 43, 1.0 mg/kg single subcutaneous dose on day 1
[11] = Day 8, 1.0 mg/kg single subcutaneous dose on day 1, female C57bl/6 mice
[12] = Day 15, 1.0 mg/kg single subcutaneous dose on day 1, female C57bl/6 mice
[13] = Day 22, 1.0 mg/kg single subcutaneous dose on day 1, female C57bl/6 mice
[14] = Day 29, 1.0 mg/kg single subcutaneous dose on day 1, female C57bl/6 mice
[15] = Day 43, 1.0 mg/kg single subcutaneous dose on day 1, female C57bl/6 mice
[16] = Day 8, 0.5 mg/kg single SC injection on day 1, n=3
[17] = Day 15, 0.5 mg/kg single SC injection on day 1, n=3
[18] = Day 22, 0.5 mg/kg single SC injection on day 1, n=3
[19] = Day 29, 0.5 mg/kg single SC injection on day 1, n=3
[20] = Day 8, 1.0 mg/kg single SC injection on day 1, n=3
[21] = Day 15, 1.0 mg/kg single SC injection on day 1, n=3
[22] = Day 22, 1.0 mg/kg single SC injection on day 1, n=3
[23] = Day 29, 1.0 mg/kg single SC injection on day 1, n=3
[24] = Day 43, 1.0 mg/kg single SC injection on day 1, n=3

Row | Substance | Avg ANGPTL3 (Average ANGPTL3 Protein Normalized to Pre-Treatment and Control) [1, 6] | Avg ANGPTL3 (Average ANGPTL3 Protein Normalized to Pre-Treatment and Control) [1, 7] | Avg ANGPTL3 (Average ANGPTL3 Protein Normalized to Pre-Treatment and Control) [1, 8] | Avg ANGPTL3 (Average ANGPTL3 Protein Normalized to Pre-Treatment and Control) [1, 9] | Avg ANGPTL3 (Average ANGPTL3 Protein Normalized to Pre-Treatment and Control) [1, 10] | Avg TG (Average Triglycerides Normalized to Pre-Treatment and Control) [2, 11] | Avg TG (Average Triglycerides Normalized to Pre-Treatment and Control) [2, 12] | Avg TG (Average Triglycerides Normalized to Pre-Treatment and Control) [2, 13] | Avg TG (Average Triglycerides Normalized to Pre-Treatment and Control) [2, 14] | Avg TG (Average Triglycerides Normalized to Pre-Treatment and Control) [3, 11] | Avg TG (Average Triglycerides Normalized to Pre-Treatment and Control) [3, 12] | Avg TG (Average Triglycerides Normalized to Pre-Treatment and Control) [3, 13] | Avg TG (Average Triglycerides Normalized to Pre-Treatment and Control) [3, 14] | Avg TG (Average Triglycerides Normalized to Pre-Treatment and Control) [3, 15] | Avg Total Chol, normalized to pre-treatment and control [4, 16] | Avg Total Chol, normalized to pre-treatment and control [4, 17] | Avg Total Chol, normalized to pre-treatment and control [4, 18] | Avg Total Chol, normalized to pre-treatment and control [4, 19] | Avg HDL, normalized to pre-treatment and control [5, 20] | Avg HDL, normalized to pre-treatment and control [5, 21] | other results
1 | AD05308: RNAi agent duplex: antisense AM07003-AS, sense AM07002-SS (chain 1 mU*fG*mU*fUmGfAmAfUmUfAmAfUmGfUmCfCmAfUmGfG*mA; chain 2 {NAG37}*[invAb]*mUmCmCmAmUmGmGmAfCfAfUmUmAmAmUmUmCmAmAmCmA*[invAb]) | 0.299 | 0.298 | 0.252 | 0.322 | 0.643 | 0.952 | 0.749 | 0.854 | 1.009 | 0.749 | 1.164 | 1.152 | 1.021 | 0.994 | 0.756 | 0.814 | 0.896 | 0.927 | 0.904 | 0.801 | Avg ANGPTL3 (Average ANGPTL3 Protein Normalized to Pre-Treatment and Control) ([1]; Day 8, 0.5 mg/kg single subcutaneous dose on day 1): 0.340; Avg ANGPTL3 (Average ANGPTL3 Protein Normalized to Pre-Treatment and Control) ([1]; Day 15, 0.5 mg/kg single subcutaneous dose on day 1): 0.310; Avg ANGPTL3 (Average ANGPTL3 Protein Normalized to Pre-Treatment and Control) ([1]; Day 22, 0.5 mg/kg single subcutaneous dose on day 1): 0.319; Avg ANGPTL3 (Average ANGPTL3 Protein Normalized to Pre-Treatment and Control) ([1]; Day 29, 0.5 mg/kg single subcutaneous dose on day 1): 0.345; Avg ANGPTL3 (Average ANGPTL3 Protein Normalized to Pre-Treatment and Control) ([1]; Day 43, 0.5 mg/kg single subcutaneous dose on day 1): 0.582; Avg TG (Average Triglycerides Normalized to Pre-Treatment and Control) ([3]; Day 8, 0.5 mg/kg single subcutaneous dose on day 1, female C57bl/6 mice): 1.330; Avg TG (Average Triglycerides Normalized to Pre-Treatment and Control) ([3]; Day 15, 0.5 mg/kg single subcutaneous dose on day 1, female C57bl/6 mice): 1.598; Avg TG (Average Triglycerides Normalized to Pre-Treatment and Control) ([3]; Day 22, 0.5 mg/kg single subcutaneous dose on day 1, female C57bl/6 mice): 1.732; Avg TG (Average Triglycerides Normalized to Pre-Treatment and Control) ([3]; Day 29, 0.5 mg/kg single subcutaneous dose on day 1, female C57bl/6 mice): 1.446; Avg TG (Average Triglycerides Normalized to Pre-Treatment and Control) ([3]; Day 43, 0.5 mg/kg single subcutaneous dose on day 1, female C57bl/6 mice): 1.547; Avg HDL, normalized to pre-treatment and control [5, 16]: 1.007; Avg HDL, normalized to pre-treatment and control [5, 17]: 0.770; Avg HDL, normalized to pre-treatment and control [5, 18]: 0.921; Avg HDL, normalized to pre-treatment and control [5, 22]: 0.728; Avg HDL, normalized to pre-treatment and control [5, 19]: 0.934; Avg HDL, normalized to pre-treatment and control [5, 23]: 0.824; Avg HDL, normalized to pre-treatment and control ([5]; Day 43, 0.5 mg/kg single SC injection on day 1, n=3): 1.101; Avg HDL, normalized to pre-treatment and control [5, 24]: 1.096
2 | AD05307: RNAi agent duplex: antisense AM07001-AS, sense AM07000-SS (chain 1 mU*fU*mU*fGmAfAmUfUmAfAmUfGmUfCmCfAmUfGmGmG*mC; chain 2 {NAG37}*[invAb]*mGmCmCmCmAmUmGmGfAfCfAmUmUmAmAmUmUmCmAmAmA*[invAb]) | – | – | – | – | – | 0.786 | 0.692 | 0.903 | 0.852 | – | – | – | – | – | – | – | – | – | – | – | –
3 | AD05488: RNAi agent duplex: antisense AM07235-AS, sense AM07234-SS (antisense mU*fA*mC*fUmGfAmUfCmAfAmAfUmAfUmGfUmUfGmAfG*mC; sense {NAG37}*[invAb]*mGmCmUmCmAmAmCmAfUfAfUmUmUmGmAmUmCmAmGmUmA*[invAb]) | 0.090 | 0.070 | 0.092 | 0.124 | 0.254 | – | – | – | – | 0.624 | 0.795 | 0.837 | 0.721 | 0.901 | 0.802 | 0.810 | 0.810 | 0.906 | 0.839 | 0.644 | ANGPTL3 protein normalized to pre-treatment and control ([1]; day 15, single 1 mg/kg subcutaneous, C57bl/6 mice): 0.070; ANGPTL3 protein normalized to pre-treatment and control ([1]; day 22, single 1 mg/kg subcutaneous, C57bl/6 mice): 0.092; knockdown of ANGPTL3 protein ([1]; days 15 and 22, single 1 mg/kg subcutaneous, C57bl/6 mice): greater than 90%; Avg HDL, normalized to pre-treatment and control [5, 22]: 0.727; Avg HDL, normalized to pre-treatment and control [5, 23]: 0.771; Avg HDL, normalized to pre-treatment and control [5, 24]: 0.833
